According to ChEMBL document CHEMBL1137135 (Bioorg Med Chem Lett, 2004):

Assay: In vitro inhibitory activity against Factor Xa

Structure (SMILES) | IC50 [nM]
NS(=O)(=O)c1ccccc1-c1ccc(C(=O)NCCNC(=O)c2cc3cc(Cl)ccc3[nH]2)cc1 | 760
NS(=O)(=O)c1ccccc1-c1ccc(C(=O)NCCNS(=O)(=O)c2ccc3cc(Br)ccc3c2)cc1 | 9300
CN(C)C(=N)c1ccc(C(=O)N[C@H](CC(=O)Nc2ccc(Br)cn2)C(=O)N2CCCCC2)cc1 | 4.6
NS(=O)(=O)c1ccccc1-c1ccc(C(=O)NCCNS(=O)(=O)c2cc3cc(Cl)ccc3[nH]2)cc1 | 1900
NS(=O)(=O)c1ccccc1-c1ccc(C(=O)NCCC(=O)Nc2ccc(Cl)cc2)cc1 | 17
COC(=O)C(CC(=O)Nc1ccc(Br)cn1)NC(=O)c1ccc(-c2ccccc2S(N)(=O)=O)cc1 (centres undefined) | 24.7
CCC(=O)NC(CC(=O)Nc1ccc(Br)cn1)C(=O)Nc1ccc(-c2ccccc2S(N)(=O)=O)cc1 (centres undefined) | 36.5
NS(=O)(=O)c1ccccc1-c1ccc(C(=O)NC(CC(=O)Nc2ccc(Br)cn2)C(=O)N2CCCC2)cc1 (centres undefined) | 14.5
CNC(=O)C(CC(=O)Nc1ccc(Br)cn1)NC(=O)c1ccc(-c2ccccc2S(N)(=O)=O)cc1 (centres undefined) | 17.4
NS(=O)(=O)c1ccccc1-c1ccc(NC(=O)C(CC(=O)Nc2ccc(Br)cn2)NC(=O)Nc2ccccc2)cc1 (centres undefined) | 37
NC(CNC(=O)c1ccc(-c2ccccc2S(N)(=O)=O)cc1)C(=O)Nc1ccc(Br)cn1 (centres undefined) | 1650
CN1CCN=C1c1ccc(C(=O)N[C@H](CC(=O)Nc2ccc(Cl)cn2)C(=O)N2CCCCC2)cc1 | 26
COCCN(C)Cc1ccccc1-c1ccc(C(=O)N[C@@H](CC(=O)Nc2ccc(Cl)cn2)C(=O)N2CCCCC2)cc1 | 9.3
NS(=O)(=O)c1ccccc1-c1ccc(NC(=O)C(CC(=O)Nc2ccc(Br)cn2)NC(=O)c2ccncc2)cc1 (centres undefined) | 43.8
NS(=O)(=O)c1ccccc1-c1ccc(C(=O)NC(CC(=O)Nc2ccc(Br)cn2)C(=O)N2CCOCC2)cc1 (centres undefined) | 22.9
NS(=O)(=O)c1ccccc1-c1ccc(NC(=O)C(CC(=O)Nc2ccc(Br)cn2)NC(=O)C(F)(F)F)cc1 (centres undefined) | 200
CCOC(=O)CNC(=O)C(CC(=O)Nc1ccc(Br)cn1)NC(=O)c1ccc(-c2ccccc2S(N)(=O)=O)cc1 (centres undefined) | 3.3
CN(C)C(=N)c1ccc(C(=O)N[C@H](CC(=O)Nc2ccc(Cl)cn2)C(=O)N2CCCCC2)cc1 | 12
NS(=O)(=O)c1ccccc1-c1ccc(NC(=O)C(CC(=O)Nc2ccc(Br)cn2)NC(=O)C2CCCNC2)cc1 (centres undefined) | 442
CN(C)Cc1nccn1-c1ccc(C(=O)N[C@@H](CC(=O)Nc2ccc(Cl)cn2)C(=O)N2CCCCC2)cc1 | 9.2

Structure (SMILES) | IC50 [nM]
NS(=O)(=O)c1ccccc1-c1ccc(C(=O)NC(CC(=O)Nc2ccc(Br)cn2)C(=O)Nc2ccccc2)cc1 (centres undefined) | 26.5
CN1CCN=C1c1ccc(C(=O)N[C@@H](CC(=O)Nc2ccc(Cl)cn2)C(=O)N2CCCCC2)cc1 | 28
NS(=O)(=O)c1ccccc1-c1ccc(C(=O)NC(CC(=O)Nc2ccc(Br)cn2)C(=O)N2CCNCC2)cc1 (centres undefined) | 90.9
NS(=O)(=O)c1ccccc1-c1ccc(NC(=O)CCC(=O)Nc2ccc(Br)cn2)cc1 | 20
CC(=O)NC(CC(=O)Nc1ccc(Br)cn1)C(=O)Nc1ccc(-c2ccccc2S(N)(=O)=O)cc1 (centres undefined) | 182
NS(=O)(=O)c1ccccc1-c1ccc(NC(=O)CCC(=O)Nc2ccc(Cl)cc2)cc1 | 12
O=C(C[C@@H](NC(=O)c1ccc(-c2ccccc2CN2CCCC2)cc1)C(=O)N1CCCCC1)Nc1ccc(Br)cn1 | 1
CN1CCN=C1c1ccc(C(=O)N[C@H](CC(=O)Nc2ccc(Br)cn2)C(=O)N2CCCCC2)cc1 | 8.2
CN1CCN(C(=O)C(CC(=O)Nc2ccc(Br)cn2)NC(=O)c2ccc(-c3ccccc3S(N)(=O)=O)cc2)CC1 (centres undefined) | 26.5
NCC(=O)NC(CC(=O)Nc1ccc(Br)cn1)C(=O)Nc1ccc(-c2ccccc2S(N)(=O)=O)cc1 (centres undefined) | 150
NS(=O)(=O)c1ccccc1-c1ccc(C(=O)NCCNS(=O)(=O)c2ccc(Cl)cc2)cc1 | > 10000
O=C(C[C@H](NC(=O)c1ccc(-c2ccccc2CN2CCCC2)cc1)C(=O)N1CCCCC1)Nc1ccc(Cl)cn1 | 2.7
O=C(C[C@@H](NC(=O)c1ccc(-c2ccccc2CN2CCCC2)cc1)C(=O)N1CCCCC1)Nc1ccc(Cl)cn1 | 2
NC(CC(=O)Nc1ccc(Br)cn1)C(=O)Nc1ccc(-c2ccccc2S(N)(=O)=O)cc1 (centres undefined) | 145
CN(C)Cc1nccn1-c1ccc(C(=O)N[C@@H](CC(=O)Nc2ccc(Br)cn2)C(=O)N2CCCCC2)cc1 | 330
CS(=O)(=O)NC(CNC(=O)c1ccc(-c2ccccc2S(N)(=O)=O)cc1)C(=O)Nc1ccc(Br)cn1 (centres undefined) | 1250
NS(=O)(=O)c1ccccc1-c1ccc(NC(=O)C(CC(=O)Nc2ccc(Br)cn2)NC(=O)C2CCNCC2)cc1 (centres undefined) | 194
NS(=O)(=O)c1ccccc1-c1ccc(C(=O)NC(CC(=O)Nc2ccc(Br)cn2)C(=O)NC2CCCC2)cc1 (centres undefined) | 15.9
NS(=O)(=O)c1ccccc1-c1ccc(C(=O)NCCC(=O)Nc2ccc(Br)cc2)cc1 | 29
CN(C)Cc1nccn1-c1ccc(C(=O)N[C@H](CC(=O)Nc2ccc(Br)cn2)C(=O)N2CCCCC2)cc1 | 3.1

Structure (SMILES) | IC50 [nM]
O=C(C[C@H](NC(=O)c1ccc(-c2ccccc2CN2CCOCC2)cc1)C(=O)N1CCCCC1)Nc1ccc(Cl)cn1 | 3.6
O=C(C[C@H](NC(=O)c1ccc(-c2ccccc2CN2CCOCC2)cc1)C(=O)N1CCCCC1)Nc1ccc(Br)cn1 | 290
NS(=O)(=O)c1ccccc1-c1ccc(C(=O)NC(CC(=O)Nc2ccc(Br)cn2)C(=O)N2CCS(=O)(=O)CC2)cc1 (centres undefined) | 40.1
O=C(C[C@@H](NC(=O)c1ccc(-c2ccccc2CN2CCOCC2)cc1)C(=O)N1CCCCC1)Nc1ccc(Cl)cn1 | 1.8
CC(=O)NC(CNC(=O)c1ccc(-c2ccccc2S(N)(=O)=O)cc1)C(=O)Nc1ccc(Br)cn1 (centres undefined) | 805
CNCCNC(=O)C(CC(=O)Nc1ccc(Br)cn1)NC(=O)c1ccc(-c2ccccc2S(N)(=O)=O)cc1 (centres undefined) | 43.4
NS(=O)(=O)c1ccccc1-c1ccc(NC(=O)CCC(=O)Nc2ccc(Br)cc2)cc1 | 65
NS(=O)(=O)c1ccccc1-c1ccc(NC(=O)CCC(=O)Nc2ccc(Cl)cn2)cc1 | 37
NS(=O)(=O)c1ccccc1-c1ccc(C(=O)NC(CC(=O)Nc2ccc(Br)cn2)C(=O)N2CCCCCC2)cc1 (centres undefined) | 4.98
CCCCOC(=O)NC(CNC(=O)c1ccc(-c2ccccc2S(N)(=O)=O)cc1)C(=O)Nc1ccc(Br)cn1 (centres undefined) | 1250
CN(C)CCNC(=O)C(CC(=O)Nc1ccc(Br)cn1)NC(=O)c1ccc(-c2ccccc2S(N)(=O)=O)cc1 (centres undefined) | 49.7
CN(C)CC(=O)NC(CC(=O)Nc1ccc(Br)cn1)C(=O)Nc1ccc(-c2ccccc2S(N)(=O)=O)cc1 (centres undefined) | 215
CN(C)CCN(C)C(=O)C(CC(=O)Nc1ccc(Br)cn1)NC(=O)c1ccc(-c2ccccc2S(N)(=O)=O)cc1 (centres undefined) | 45.5
CN(C)Cc1nccn1-c1ccc(C(=O)N[C@H](CC(=O)Nc2ccc(Cl)cn2)C(=O)N2CCCCC2)cc1 | 7.6
NS(=O)(=O)c1ccccc1-c1ccc(NC(=O)C(CC(=O)Nc2ccc(Br)cn2)NC(=O)c2cccnc2)cc1 (centres undefined) | 47.2
NS(=O)(=O)c1ccccc1-c1ccc(C(=O)NCCNS(=O)(=O)c2cc3ccc(Cl)cc3s2)cc1 | 1090
NS(=O)(=O)c1ccccc1-c1ccc(C(=O)NCC(NC(=O)Nc2ccccc2)C(=O)Nc2ccc(Br)cn2)cc1 (centres undefined) | 8500
O=C(C[C@H](NC(=O)c1ccc(-c2ccccc2CN2CCCC2)cc1)C(=O)N1CCCCC1)Nc1ccc(Br)cn1 | 230
CN(C)C(=N)c1ccc(C(=O)N[C@@H](CC(=O)Nc2ccc(Cl)cn2)C(=O)N2CCCCC2)cc1 | 24
